Measurements from patent US6083677A, “Photographic element containing yellow dye-forming photographic coupler” (Eastman Kodak Company, priority 1998, dated 2000).

Assay: Accelerated solution test of acid hydrolysis of yellow dyes (HPLC)
Format: physicochemical
Parameters: kobs rate of hydrolysis: unit not given here
Details: 1 mM dye in 6% Triton X100, pH 2.0, phosphate buffer, 50° C.
Method: The hydrolytic stability or acid catalyzed decomposition of yellow azomethine dyes is an important pathway in the degradation of photographic images. It is believed that the stability of yellow dyes toward acidic hydrolysis is predictive of their stability in color photographic images.
The rates of hydrolysis of a variety of dyes have been measured using an accelerated solution test format. The dyes (1.0 mM dye in 6% Triton X-100®) in buffered acidic solutions (pH=2.0, μ=0.2, phosphate buffer) were held at 50° C. The rates of dye destruction were monitored using standard HPLC procedures.
^a. 1 mM dye in 6% Triton X100 ® (60 g/l octylphenoxy
polyethoxyethanols, Avg M.W. = 646) solution in pH 2.0, […],
phosphate buffer at 50° C.

Structure (SMILES) | kobs rate of hydrolysis | t1/2 - time for 1/2 the dye to hydrolyze
CCCCCCCCCCCCCCCCCCOc1ccc(S(=O)(=O)Nc2ccccc2Cl)cc1NC(=O)C(=Nc1ccc(N(CC)CCNS(C)(=O)=O)cc1C)C(=O)N1CCc2ccccc21 [Cmp-6, reference compound] | 2.48 | 78 h
CCCCCCCCCCCCOC(=O)c1ccc(Cl)c(NC(=O)C(=Nc2ccc(N(CC)CCNS(C)(=O)=O)cc2C)C(=O)C(C)(C)C)c1 [Cmp-10, reference compound] | 5.57 | 35 h
CCCCCCCCCCCCCCCCS(=O)(=O)Nc1ccc(Cl)c(NC(=O)C(=Nc2ccc(N(CC)CCNS(C)(=O)=O)cc2C)C(=O)C(C)(C)C)c1 [Cmp-11, reference compound] | 12.1 | 16 h
CCCCCCCCCCCCn1c(-c2ccccc2)c(C(=O)C(=Nc2ccc(N(CC)CCNS(C)(=O)=O)cc2C)C(=O)Nc2ccc(S(C)(=O)=O)cc2Cl)c2ccccc21 [Coupler D-16] | 0.38 | 500 h

Next, values leading:

kobs rate of hydrolysis | t1/2 - time for 1/2 the dye to hydrolyze | Structure (SMILES)
0.17 | 1,150 hr | CCCCCCCCCCCCS(=O)(=O)c1ccc(NC(=O)C(=Nc2ccc(N(CC)CCNS(C)(=O)=O)cc2C)C(=O)c2c(-c3ccccc3)n(C)c3ccccc23)c(Cl)c1 [Coupler D-15]
0.31 | 610 h | CCCCCCCCCCCCNS(=O)(=O)c1ccc(NC(=O)C(=Nc2ccc(N(CC)CCNS(C)(=O)=O)cc2C)C(=O)c2c(-c3ccccc3)n(C)c3ccccc23)c(Cl)c1 [Coupler D-17]
9.63 | 20 h | CCCCCCCCCCCCCCCCOC(=O)c1ccc(Cl)c(NC(=O)C(=Nc2ccc(N(CC)CCNS(C)(=O)=O)cc2C)C(=O)c2c(C)n(C)c3ccccc23)c1 [Coupler D-18]
1.91 | 101 h | CCCCCCCCCCCCCCCCOC(=O)c1ccc(Cl)c(NC(=O)C(=Nc2ccc(N(CC)CCNS(C)(=O)=O)cc2C)C(=O)c2c(C3CCCCC3)n(C)c3ccccc23)c1 [Coupler D-19]

Assay: Spectrophotometric response of dyes in dilute acetonitrile solution
Format: physicochemical
Details: not given
Excerpt: As mentioned previously, many characteristics of a photographic image depend upon the spectral response of the dyes forming that image. The greater the molar extinction of an image-forming dye the less silver is needed to produce that dye; lower silver laydowns may lead to sharper photographic images. The color of a dye depends upon the position of its maximum light absorption (λ-max). With yellow dyes, the deeper (more bathochromic) the λmax of the dye the more orange the color of the dye. Orange dyes cannot be employed to effectively reproduce bright lemon yellows, thus lighter yellow dyes arc preferred for better color reproduction. Finally, the ideal yellow dye absorbs only light in the blue portion of the visible spectrum; yellow dyes that absorb substantial amounts of green light appear desaturated and therefore yield poorer color reproduction. The bathochromic (long wavelength side) one-half bandwidth (B1/2BW) is a good measure of the degree of unwanted absorption of a yellow dye. The B1/2BW is the distance on the long wavelength side of the dye's spectral response curve, in nanometers, from the λmax to the wavelength of 1/2 the maximum absorption. The smaller the B1/2BW distance, the more sharp-cutting is the spectral response of a dye and the better the color reproduction available from the dye.
^a. Spectrophotometric data derived from dilute acetonitrile solution
of chromatographically homogenous dyes; see Table 3 for invention dye

Structure (SMILES) | B1/2BW (bathochromic one-half bandwidth) | λmax
CCCCc1ccc(NC(=O)C(=Nc2ccc(N(CC)CCNS(C)(=O)=O)cc2C)C(=O)c2ccn(-c3ccccc3)c2)cc1 [Cmp-1, reference compound] | 42 nm | 430 nm
CCCCc1ccc(NC(=O)C(=Nc2ccc(N(CC)CCNS(C)(=O)=O)cc2C)C(=O)c2cn(-c3ccccc3)cc2C)cc1 [Cmp-2, reference compound] | 40 nm | 428 nm
CCCCc1ccc(NC(=O)C(=Nc2ccc(N(CC)CCNS(C)(=O)=O)cc2C)C(=O)c2cccn2-c2ccccc2)cc1 [Cmp-3, reference compound] | 40 nm | 426 nm
CCCCc1ccc(NC(=O)C(=Nc2ccc(N(CC)CCNS(C)(=O)=O)cc2C)C(=O)c2ccn(-c3ccccc3)c2C)cc1 [Cmp-4, reference compound] | 40 nm | 434 nm
CCCCc1ccc(NC(=O)C(=Nc2ccc(N(CC)CCNS(C)(=O)=O)cc2C)C(=O)C(C)(C)C)cc1 [Cmp-7, reference compound] | 42 nm | 428 nm
CCCCc1ccc(NC(=O)C(=Nc2ccc(N(CC)CCNS(C)(=O)=O)cc2C)C(=O)c2c(-c3ccccc3)n(C)c3ccccc23)cc1 [Coupler D-1] | 32 nm | 426 nm
CCCCc1ccc(NC(=O)C(=Nc2ccc(N(CC)CCNS(C)(=O)=O)cc2C)C(=O)c2c(C)[nH]c3ccccc23)cc1 [Coupler D-2] | 37 nm | 426 nm
CCCCc1ccc(NC(=O)C(=Nc2ccc(N(CC)CCNS(C)(=O)=O)cc2C)C(=O)c2cn(C)c3ccccc23)cc1 [Coupler D-3] | 39 nm | 428 nm
CCCCc1ccc(NC(=O)C(=Nc2ccc(N(CC)CCNS(C)(=O)=O)cc2C)C(=O)c2c(C)n(C)c3ccccc23)cc1 [Coupler D-4] | 37 nm | 428 nm
CCCCc1ccc(NC(=O)C(=Nc2ccc(N(CC)CCNS(C)(=O)=O)cc2C)C(=O)c2c(C3CCCCC3)n(C)c3ccccc23)cc1 [Coupler D-5] | 37 nm | 428 nm
CCCCc1ccc(NC(=O)C(=Nc2ccc(N(CC)CCNS(C)(=O)=O)cc2C)C(=O)c2c3n(c4ccccc24)CCCC3)cc1 [Coupler D-6] | 38 nm | 426 nm
CCCCc1ccc(NC(=O)C(=Nc2ccc(N(CC)CCNS(C)(=O)=O)cc2C)C(=O)c2c(-c3ccccc3)[nH]c3ccccc23)cc1 [Coupler D-7] | 35 nm | 430 nm
CCCCc1ccc(NC(=O)C(=Nc2ccc(N(CC)CCNS(C)(=O)=O)cc2C)C(=O)c2c(-c3ccccc3)n(-c3ccccc3)c3ccccc23)cc1 [Coupler D-8] | 33 nm | 426 nm

More lines, now with the values ahead:

B1/2BW (bathochromic one-half bandwidth) | λmax | Structure (SMILES)
34 nm | 422 nm | CCCCc1ccc(NC(=O)C(=Nc2ccc(N(CC)CCNS(C)(=O)=O)cc2C)C(=O)c2c3c(n(C)c2-c2ccccc2)CCCC3)cc1 [Coupler D-9]
35 nm | 424 nm | CCCCc1ccc(NC(=O)C(=Nc2ccc(N(CC)CCNS(C)(=O)=O)cc2C)C(=O)c2c3c(n(C)c2-c2ccccc2)CCC3)cc1 [Coupler D-10]
33 nm | 426 nm | CCCCc1ccc(NC(=O)C(=Nc2ccc(N(CC)CCNS(C)(=O)=O)cc2C)C(=O)c2c(-c3ccccc3)n(C)c3ccc(OC)cc23)cc1 [Coupler D-11]
33 nm | 430 nm | CCCCc1ccc(NC(=O)C(=Nc2ccc(N(CC)CCNS(C)(=O)=O)cc2C)C(=O)c2c(-c3ccccc3)n(C)c3ccc(C#N)cc23)cc1 [Coupler D-12]
47 nm | 444 nm | CCCCc1ccc(NC(=O)C(=Nc2ccc(N(CC)CCNS(C)(=O)=O)cc2C)C(=O)c2c(-c3ccccc3)oc3ccccc23)cc1 [Coupler D-13]
46 nm | 438 nm | CCCCc1ccc(NC(=O)C(=Nc2ccc(N(CC)CCNS(C)(=O)=O)cc2C)C(=O)c2c(-c3ccccc3)c3ccccc3n2C)cc1 [Coupler D-14]

Same assay, conditions: in M-1 cm-1 (unit assumed)

Structure (SMILES) | Extinction
CCCCc1ccc(NC(=O)C(=Nc2ccc(N(CC)CCNS(C)(=O)=O)cc2C)C(=O)c2ccn(-c3ccccc3)c2)cc1 [Cmp-1, reference compound] | 12,800
CCCCc1ccc(NC(=O)C(=Nc2ccc(N(CC)CCNS(C)(=O)=O)cc2C)C(=O)c2cn(-c3ccccc3)cc2C)cc1 [Cmp-2, reference compound] | 13,900
CCCCc1ccc(NC(=O)C(=Nc2ccc(N(CC)CCNS(C)(=O)=O)cc2C)C(=O)c2cccn2-c2ccccc2)cc1 [Cmp-3, reference compound] | 13,700
CCCCc1ccc(NC(=O)C(=Nc2ccc(N(CC)CCNS(C)(=O)=O)cc2C)C(=O)c2ccn(-c3ccccc3)c2C)cc1 [Cmp-4, reference compound] | 12,600
CCCCc1ccc(NC(=O)C(=Nc2ccc(N(CC)CCNS(C)(=O)=O)cc2C)C(=O)C(C)(C)C)cc1 [Cmp-7, reference compound] | 11,800
CCCCc1ccc(NC(=O)C(=Nc2ccc(N(CC)CCNS(C)(=O)=O)cc2C)C(=O)c2c(-c3ccccc3)n(C)c3ccccc23)cc1 [Coupler D-1] | 19,700
CCCCc1ccc(NC(=O)C(=Nc2ccc(N(CC)CCNS(C)(=O)=O)cc2C)C(=O)c2c(C)[nH]c3ccccc23)cc1 [Coupler D-2] | 10,000
CCCCc1ccc(NC(=O)C(=Nc2ccc(N(CC)CCNS(C)(=O)=O)cc2C)C(=O)c2cn(C)c3ccccc23)cc1 [Coupler D-3] | 13,500
CCCCc1ccc(NC(=O)C(=Nc2ccc(N(CC)CCNS(C)(=O)=O)cc2C)C(=O)c2c(C)n(C)c3ccccc23)cc1 [Coupler D-4] | 16,200
CCCCc1ccc(NC(=O)C(=Nc2ccc(N(CC)CCNS(C)(=O)=O)cc2C)C(=O)c2c(C3CCCCC3)n(C)c3ccccc23)cc1 [Coupler D-5] | 16,800
CCCCc1ccc(NC(=O)C(=Nc2ccc(N(CC)CCNS(C)(=O)=O)cc2C)C(=O)c2c3n(c4ccccc24)CCCC3)cc1 [Coupler D-6] | 17,300
CCCCc1ccc(NC(=O)C(=Nc2ccc(N(CC)CCNS(C)(=O)=O)cc2C)C(=O)c2c(-c3ccccc3)[nH]c3ccccc23)cc1 [Coupler D-7] | 14,100
CCCCc1ccc(NC(=O)C(=Nc2ccc(N(CC)CCNS(C)(=O)=O)cc2C)C(=O)c2c(-c3ccccc3)n(-c3ccccc3)c3ccccc23)cc1 [Coupler D-8] | 16,600

Results, then the molecule that gave them:

Extinction | Structure (SMILES)
19,300 | CCCCc1ccc(NC(=O)C(=Nc2ccc(N(CC)CCNS(C)(=O)=O)cc2C)C(=O)c2c3c(n(C)c2-c2ccccc2)CCCC3)cc1 [Coupler D-9]
17,700 | CCCCc1ccc(NC(=O)C(=Nc2ccc(N(CC)CCNS(C)(=O)=O)cc2C)C(=O)c2c3c(n(C)c2-c2ccccc2)CCC3)cc1 [Coupler D-10]
21,300 | CCCCc1ccc(NC(=O)C(=Nc2ccc(N(CC)CCNS(C)(=O)=O)cc2C)C(=O)c2c(-c3ccccc3)n(C)c3ccc(OC)cc23)cc1 [Coupler D-11]
20,100 | CCCCc1ccc(NC(=O)C(=Nc2ccc(N(CC)CCNS(C)(=O)=O)cc2C)C(=O)c2c(-c3ccccc3)n(C)c3ccc(C#N)cc23)cc1 [Coupler D-12]
13,400 | CCCCc1ccc(NC(=O)C(=Nc2ccc(N(CC)CCNS(C)(=O)=O)cc2C)C(=O)c2c(-c3ccccc3)oc3ccccc23)cc1 [Coupler D-13]
11,900 | CCCCc1ccc(NC(=O)C(=Nc2ccc(N(CC)CCNS(C)(=O)=O)cc2C)C(=O)c2c(-c3ccccc3)c3ccccc3n2C)cc1 [Coupler D-14]
